Reference: ChEMBL document CHEMBL4428084, “Discovery and Optimization of N-(4-(3-Aminophenyl)thiazol-2-yl)acetamide as a Novel Scaffold Active against Sensitive and Resistant Cancer Cells” (J Med Chem, 2016)
Activity calls are given as the source filed them. The calls are words filed in the database; no cut-off is given here.

Columns and labels:
MIA PaCa-2 [1] = experiment: Cytotoxicity against gemcitabine-resistant human MIAPaCa2 cells assessed as reduction in cell viability after 48 hrs by trypan blue exclusion assay; format: functional, cell-based; conditions: MIA PaCa-2, 48 h
[2] = Toxicity in nude Balb/c mouse xenografted with human A375 cells assessed as diet disturbance at 0.7 mg/kg/day, ip; format: organism-based; conditions: in vivo
[3] = Cytotoxicity against human keratinocytes assessed as cell viability at 5 uM after 48 hrs by trypan blue exclusion assay relative to control; format: cell-based, Keratinocyte; conditions: read-out: Activity
A-375 [4] = experiment: Inhibition of colony formation in human A375 cells at 10 uM after 10 days by crystal violet staining based assay relative to control; format: functional; conditions: A-375, 240 h
[5] = Cytotoxicity against vemurafenib-resistant human A375 R5C3 cells assessed as cell viability at 10 uM after 48 hrs by trypan blue exclusion assay relative to control; format: functional; conditions: A-375, 48 h, read-out: Activity
A-375 [6] = experiment: Antitumor activity against human A375 cells xenografted in immuno-deficient nude Balb/c mouse assessed as tumor growth inhibition at 0.7 mg/kg/day, ip measured on day 31 post treatment; format: functional, organism-based
[7] = Toxicity in mouse assessed as behavioral modification at 1 mg/kg, iv; format: organism-based; conditions: in vivo
[8] = Cytotoxicity against vemurafenib-resistant human A375 RIV cells assessed as cell viability at 1 uM after 48 hrs by trypan blue exclusion assay relative to control; format: functional; conditions: A-375, 48 h, read-out: Activity
[9] = Cytotoxicity against human fibroblasts assessed as cell viability at 5 uM after 48 hrs by trypan blue exclusion assay relative to control; format: cell-based, Fibroblast; conditions: read-out: Activity
[10] = Toxicity in nude Balb/c mouse xenografted with human A375 cells assessed as behavioral modification at 0.7 mg/kg/day, ip; format: organism-based; conditions: in vivo
[11] = Terminal half life in mouse at 1 mg/kg, iv; format: ADME, organism-based; conditions: in vivo, read-out: beta t1/2
A-375 [12] = experiment: Cytotoxicity against vemurafenib-sensitive human A375 cells assessed as cell viability at 10 uM after 48 hrs by trypan blue exclusion assay relative to control; format: functional; conditions: A-375, 48 h, read-out: Activity
A-375 [13] = experiment: Induction of autophagy in human A375 cells assessed as increase in LC3-1 to LC3-2 conversion at 10 uM after 24 hrs by Western blot analysis; format: functional, cell-based
[14] = AUC (0 to 2 hrs) in mouse at 1 mg/kg, iv; format: ADME, organism-based; design: dose 1 mg/kg, time < 2 hr, route intravenous; conditions: in vivo
K562 [15] = experiment: Cytotoxicity against imatinib-sensitive human K562 cells assessed as reduction in cell viability after 48 hrs by trypan blue exclusion assay; format: functional, cell-based; conditions: K562, 48 h
A-375 [16] = experiment: Induction of autophagy in human A375 cells assessed as increase in LC3B-2 expression at 10 uM after 48 hrs in presence of LC3 siRNA by Western blot analysis; format: functional, cell-based
A-375 [17] = experiment: Inhibition of colony formation in human A375 cells after 10 days by crystal violet staining based assay; format: functional, cell-based
[18] = Cytotoxicity against vemurafenib-resistant human A375 RIV cells assessed as cell viability at 5 uM after 48 hrs by trypan blue exclusion assay relative to control; format: functional; conditions: A-375, 48 h, read-out: Activity
K562 [19] = experiment: Cytotoxicity against imatinib-resistant human K562 cells assessed as cell viability at 10 uM after 48 hrs by trypan blue exclusion assay relative to control; format: functional; conditions: K562, 48 h, read-out: Activity
BXPC-3 [20] = experiment: Cytotoxicity against gemcitabine-sensitive human BxPC3 cells assessed as cell viability at 10 uM after 48 hrs by trypan blue exclusion assay relative to control; format: functional; conditions: BXPC-3, 48 h, read-out: Activity
A-375 [21] = experiment: Induction of apoptosis in human A375 cells assessed as cells with active caspase-3 at 10 uM after 48 hrs by flow cytometry (reference value: 4.16%); format: functional
[22] = Cytotoxicity against vemurafenib-resistant human A375 RIV cells assessed as reduction in cell viability after 48 hrs by trypan blue exclusion assay; format: functional, cell-based; conditions: A-375, 48 h
MIA PaCa-2 [23] = experiment: Cytotoxicity against gemcitabine-resistant human MIAPaCa2 cells assessed as cell viability at 10 uM after 48 hrs by trypan blue exclusion assay relative to control; format: functional; conditions: MIA PaCa-2, 48 h, read-out: Activity
A-375 [24] = experiment: Induction of apoptosis in human A375 cells assessed as increase in cleaved PARP expression at 10 uM after 48 hrs in presence of pan-caspase inhibitor QVD by Western blot analysis; format: functional, cell-based
K562 [25] = experiment: Cytotoxicity against imatinib-resistant human K562 cells assessed as reduction in cell viability after 48 hrs by trypan blue exclusion assay; format: functional, cell-based; conditions: K562, 48 h
BXPC-3 [26] = experiment: Cytotoxicity against gemcitabine-sensitive human BxPC3 cells assessed as reduction in cell viability after 48 hrs by trypan blue exclusion assay; format: functional, cell-based; conditions: BXPC-3, 48 h
[27] = Cytotoxicity against vemurafenib-resistant human A375 R5C3 cells assessed as cell viability at 1 uM after 48 hrs by trypan blue exclusion assay relative to control; format: functional; conditions: A-375, 48 h, read-out: Activity
A-375 [28] = experiment: Cytotoxicity against vemurafenib-sensitive human A375 cells assessed as cell viability at 5 uM after 48 hrs by trypan blue exclusion assay relative to control; format: functional; conditions: A-375, 48 h, read-out: Activity
A-375 [29] = experiment: Inhibition of colony formation in human A375 cells at 5 uM after 10 days by crystal violet staining based assay relative to control; format: functional; conditions: A-375, 240 h
A-375 [30] = experiment: Cytotoxicity against human A375 cells assessed as reduction in cell viability at 10 uM after 48 hrs in presence of pan-caspase inhibitor QVD/LC3 siRNA by trypan blue exclusion assay; format: functional, cell-based
A-375 [31] = experiment: Induction of autophagy in human A375 cells assessed as increase in LC3-2 expression at 10 uM after 12 hrs by Hoechst staining based immunofluorescence method; format: functional, cell-based
[32] = Toxicity in nude Balb/c mouse xenografted with human A375 cells assessed as effect on body mass at 0.7 mg/kg/day, ip; format: organism-based; conditions: in vivo
[33] = Cytotoxicity against human keratinocytes assessed as cell viability at 10 uM after 48 hrs by trypan blue exclusion assay relative to control; format: cell-based, Keratinocyte; conditions: read-out: Activity
[34] = Total clearance in mouse at 1 mg/kg, iv measured 2 hrs post dose; format: ADME, organism-based; conditions: in vivo
A-375 [35] = experiment: Induction of apoptosis in human A375 cells xenografted in immuno-deficient nude Balb/c mouse assessed as increase in cleaved PARP expression in tumor at 0.7 mg/kg/day, ip measured on day 31 post treatment by Western blot analysis; format: functional, organism-based
[36] = Cytotoxicity against vemurafenib-resistant human A375 RIV cells assessed as cell viability at 10 uM after 48 hrs by trypan blue exclusion assay relative to control; format: functional; conditions: A-375, 48 h, read-out: Activity
A-375 [37] = experiment: Induction of apoptosis in human A375 cells assessed as increase in cleaved PARP expression at 10 uM after 24 hrs by Western blot analysis; format: functional, cell-based
A-375 [38] = experiment: Induction of autophagy in human A375 cells xenografted in immuno-deficient nude Balb/c mouse assessed as increase in LC3-2 expression in tumor at 0.7 mg/kg/day, ip measured on day 31 post treatment by Western blot analysis; format: functional, organism-based
[39] = Volume of distribution in mouse at 1 mg/kg, iv measured 2 hrs post dose; format: ADME, organism-based; conditions: in vivo
[40] = Cytotoxicity against human fibroblasts assessed as cell viability at 10 uM after 48 hrs by trypan blue exclusion assay relative to control; format: cell-based, Fibroblast; conditions: read-out: Activity
A-375 [41] = experiment: Inhibition of colony formation in human A375 cells assessed as induction of less dense colony level at 5 and 10 uM after 10 days by crystal violet staining based assay relative to control; format: functional, cell-based
K562 [42] = experiment: Cytotoxicity against imatinib-sensitive human K562 cells assessed as cell viability at 10 uM after 48 hrs by trypan blue exclusion assay relative to control; format: functional; conditions: K562, 48 h, read-out: Activity
[43] = Cytotoxicity against vemurafenib-resistant human A375 R5C3 cells assessed as reduction in cell viability after 48 hrs by trypan blue exclusion assay; format: functional, cell-based; conditions: A-375, 48 h
[44] = Half life in mouse liver microsomes at 37 degC; format: ADME, Microsome
A-375 [45] = experiment: Cytotoxicity against vemurafenib-sensitive human A375 cells assessed as reduction in cell viability after 48 hrs by trypan blue exclusion assay; format: functional, cell-based; conditions: A-375, 48 h
BXPC-3 [46] = experiment: Cytotoxicity against gemcitabine-sensitive human BxPC3 cells assessed as cell viability at 0.1 uM after 48 hrs by trypan blue exclusion assay relative to control; format: functional; conditions: BXPC-3, 48 h, read-out: Activity
MIA PaCa-2 [47] = experiment: Cytotoxicity against gemcitabine-resistant human MIAPaCa2 cells assessed as cell viability at 0.1 uM after 48 hrs by trypan blue exclusion assay relative to control; format: functional; conditions: MIA PaCa-2, 48 h, read-out: Activity

CCCCCCC#Cc1ccc(S(=O)(=O)Nc2cccc(-c3csc(NC(C)=O)n3)c2)cc1
EC50 (MIA PaCa-2 [1]): 640 nM | Activity [2]: Non-Toxic | viability at 48 h, 5 µM [3]: 91.2% | inhibition at 10 µM (A-375 [4]): 94% | viability at 10 µM [5]: < 1% | TGI (A-375 [6]): Active | Activity [7]: Non-Toxic | viability at 1 µM [8]: 12% | viability at 48 h, 5 µM [9]: 91.5% | Activity [10]: Non-Toxic | half-life [11]: 47 min | viability at 10 µM (A-375 [12]): < 1% | Activity (A-375 [13]): Active | AUC(0-t) at 2 h [14]: 389 ng·h/mL | EC50 (K562 [15]): 1420 nM | Activity (A-375 [16]): inactive | inhibition (A-375 [17]): Dose-dependent effect | viability at 5 µM [18]: 0.3% | viability at 10 µM (K562 [19]): 3.4% | viability at 10 µM (BXPC-3 [20]): < 1% | Activity (A-375 [21]): 48 - 48.4% | EC50 [22]: 480 nM | viability at 10 µM (MIA PaCa-2 [23]): < 1% | Activity (A-375 [24]): inactive | EC50 (K562 [25]): 1620 nM | EC50 (BXPC-3 [26]): 380 nM | viability at 1 µM [27]: 83% | viability at 5 µM (A-375 [28]): < 1% | inhibition at 5 µM (A-375 [29]): 77% | Activity (A-375 [30]): inactive | Activity (A-375 [31]): Active | Activity [32]: Non-Toxic | viability at 48 h, 10 µM [33]: 93.4% | clearance [34]: 43 mL/min/kg | Activity (A-375 [35]): Active | viability at 10 µM [36]: < 1% | Activity (A-375 [37]): Active | Activity (A-375 [38]): Active | Vd [39]: 2.91 L/kg | viability at 48 h, 10 µM [40]: 85.1% | inhibition (A-375 [41]): Active | viability at 10 µM (K562 [42]): 0.6% | EC50 [43]: 1320 nM | half-life [44]: > 45 min | EC50 (A-375 [45]): 560 nM

CC(=O)Nc1nc(-c2cccc(NS(=O)(=O)c3ccc(C(C)(C)C)cc3)c2)cs1
viability at 10 µM [5]: 51.1% | viability at 1 µM [8]: 39.4% | viability at 10 µM (A-375 [12]): 1.5% | viability at 10 µM (K562 [19]): 35.1% | viability at 10 µM (BXPC-3 [20]): < 1% | viability at 10 µM (MIA PaCa-2 [23]): < 1% | viability at 10 µM [36]: < 1% | viability at 10 µM (K562 [42]): 19.4%

Nc1ccn([C@@H]2O[C@H](CO)[C@@H](O)C2(F)F)c(=O)n1 [GEMCITABINE]
viability at 0.1 µM (BXPC-3 [46]): 2% | viability at 0.1 µM (MIA PaCa-2 [47]): 86.5%

CCCCCc1ccc(S(=O)(=O)Nc2cccc(-c3csc(NC(C)=O)n3)c2)cc1
viability at 10 µM [5]: 15.6% | viability at 1 µM [8]: 27.7% | viability at 10 µM (A-375 [12]): 2.8% | viability at 10 µM (K562 [19]): 72.7% | viability at 10 µM (BXPC-3 [20]): < 1% | viability at 10 µM (MIA PaCa-2 [23]): < 1% | viability at 10 µM [36]: < 1% | viability at 10 µM (K562 [42]): 51%
